Test results reported in ChEMBL document CHEMBL1909046, “DrugMatrix in vitro pharmacology data”.

Tested on: not listed separately
Assay: DRUGMATRIX: Glutamate, Kainate radioligand binding (ligand: [3H] Kainic acid)
Type: cell membranes, Rattus norvegicus, Wistar, Brain, Membrane
Conditions: Not Active = under 50% inhibition at 10 µM

Compound	IC50	Ki
CCN1CCN(C(=O)N[C@@H](C(=O)N[C@@H]2C(=O)N3[C@@H]2SC(C)(C)[C@@H]3C(=O)O)c2ccccc2)C(=O)C1=O [PIPERACILLIN]	Not Active	Not Active
C=CCO [ALLYL ALCOHOL]	Not Active	Not Active
O=C(O)CCc1nc(-c2ccccc2)c(-c2ccccc2)o1 [OXAPROZIN]	Not Active	Not Active
c1ccc2sc(SSc3nc4ccccc4s3)nc2c1 [BENZOTHIAZYL DISULFIDE]	Not Active	Not Active
O=C1CN(/N=C/c2ccc([N+](=O)[O-])o2)C(=O)N1 [NITROFURANTOIN]	Not Active	Not Active

Biological target: T1, Alpha-1A adrenergic receptor (Rattus norvegicus, UniProt P43140)
T1 sequence (P43140 whole entry): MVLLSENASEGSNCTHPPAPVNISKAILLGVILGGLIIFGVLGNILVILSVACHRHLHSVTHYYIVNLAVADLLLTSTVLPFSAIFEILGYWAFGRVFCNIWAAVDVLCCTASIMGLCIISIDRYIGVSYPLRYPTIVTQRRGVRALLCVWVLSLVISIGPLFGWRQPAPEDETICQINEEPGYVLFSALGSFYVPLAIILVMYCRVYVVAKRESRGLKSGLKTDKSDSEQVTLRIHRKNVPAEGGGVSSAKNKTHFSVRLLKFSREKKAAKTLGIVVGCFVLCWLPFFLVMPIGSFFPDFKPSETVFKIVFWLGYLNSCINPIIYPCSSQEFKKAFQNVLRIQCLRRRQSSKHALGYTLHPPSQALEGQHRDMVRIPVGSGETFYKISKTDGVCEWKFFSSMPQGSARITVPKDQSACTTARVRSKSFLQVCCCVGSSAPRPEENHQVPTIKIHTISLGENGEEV
Assay: DRUGMATRIX: Alpha-1A adrenergic receptor radioligand binding (ligand: prazosin)
Type: cell membranes, Wistar, Submaxillary gland, Membrane
Conditions: Not Active = under 50% inhibition at 10 µM

Compound	IC50
CCN1CCN(C(=O)N[C@@H](C(=O)N[C@@H]2C(=O)N3[C@@H]2SC(C)(C)[C@@H]3C(=O)O)c2ccccc2)C(=O)C1=O [PIPERACILLIN]	Not Active
C=CCO [ALLYL ALCOHOL]	Not Active
O=C(O)CCc1nc(-c2ccccc2)c(-c2ccccc2)o1 [OXAPROZIN]	Not Active
c1ccc2sc(SSc3nc4ccccc4s3)nc2c1 [BENZOTHIAZYL DISULFIDE]	Not Active
O=C1CN(/N=C/c2ccc([N+](=O)[O-])o2)C(=O)N1 [NITROFURANTOIN]	Not Active

Biological target: Cytochrome P450 2C9 (Homo sapiens, UniProt P11712); note: in other assays of this panel Not Active means under 50% inhibition at 10 µM
Assay: not given
Conditions: bti-tn-5b1-4

Chain of Cytochrome P450 2C9 (P11712 whole entry): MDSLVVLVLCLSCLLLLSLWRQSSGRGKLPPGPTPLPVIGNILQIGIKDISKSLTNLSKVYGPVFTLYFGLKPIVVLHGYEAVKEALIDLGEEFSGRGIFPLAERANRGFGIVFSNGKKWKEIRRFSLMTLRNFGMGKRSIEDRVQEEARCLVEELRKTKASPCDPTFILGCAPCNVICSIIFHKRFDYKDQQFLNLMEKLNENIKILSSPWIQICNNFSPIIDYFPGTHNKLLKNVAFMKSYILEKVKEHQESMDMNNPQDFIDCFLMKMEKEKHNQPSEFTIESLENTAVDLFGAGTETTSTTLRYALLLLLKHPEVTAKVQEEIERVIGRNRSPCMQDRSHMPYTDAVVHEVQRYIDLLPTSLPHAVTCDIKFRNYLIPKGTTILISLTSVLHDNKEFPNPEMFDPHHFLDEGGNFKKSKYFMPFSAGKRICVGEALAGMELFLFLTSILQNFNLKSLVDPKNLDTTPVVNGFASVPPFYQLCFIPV

Compound	IC50	Ki
CCN1CCN(C(=O)N[C@@H](C(=O)N[C@@H]2C(=O)N3[C@@H]2SC(C)(C)[C@@H]3C(=O)O)c2ccccc2)C(=O)C1=O [PIPERACILLIN]	Not Active	Not Active
C=CCO [ALLYL ALCOHOL]	Not Active	Not Active
O=C(O)CCc1nc(-c2ccccc2)c(-c2ccccc2)o1 [OXAPROZIN]	Not Active	Not Active
c1ccc2sc(SSc3nc4ccccc4s3)nc2c1 [BENZOTHIAZYL DISULFIDE]	Not Active	Not Active
O=C1CN(/N=C/c2ccc([N+](=O)[O-])o2)C(=O)N1 [NITROFURANTOIN]	Not Active	Not Active

Tested on: not listed separately
Assay: DRUGMATRIX: Interleukin IL-1 radioligand binding (ligand: [125I] interleukin 1beta)
Type: cell membranes, Membrane
Conditions: nih3t3; Not Active = under 50% inhibition at 10 µM

Compound	IC50	Ki
CCN1CCN(C(=O)N[C@@H](C(=O)N[C@@H]2C(=O)N3[C@@H]2SC(C)(C)[C@@H]3C(=O)O)c2ccccc2)C(=O)C1=O [PIPERACILLIN]	Not Active	Not Active
C=CCO [ALLYL ALCOHOL]	Not Active	Not Active
O=C(O)CCc1nc(-c2ccccc2)c(-c2ccccc2)o1 [OXAPROZIN]	Not Active	Not Active
c1ccc2sc(SSc3nc4ccccc4s3)nc2c1 [BENZOTHIAZYL DISULFIDE]	Not Active	Not Active
O=C1CN(/N=C/c2ccc([N+](=O)[O-])o2)C(=O)N1 [NITROFURANTOIN]	Not Active	Not Active

Biological target: T2, Progesterone receptor (Bos taurus, UniProt Q690N0)
T2 sequence (Q690N0 whole entry): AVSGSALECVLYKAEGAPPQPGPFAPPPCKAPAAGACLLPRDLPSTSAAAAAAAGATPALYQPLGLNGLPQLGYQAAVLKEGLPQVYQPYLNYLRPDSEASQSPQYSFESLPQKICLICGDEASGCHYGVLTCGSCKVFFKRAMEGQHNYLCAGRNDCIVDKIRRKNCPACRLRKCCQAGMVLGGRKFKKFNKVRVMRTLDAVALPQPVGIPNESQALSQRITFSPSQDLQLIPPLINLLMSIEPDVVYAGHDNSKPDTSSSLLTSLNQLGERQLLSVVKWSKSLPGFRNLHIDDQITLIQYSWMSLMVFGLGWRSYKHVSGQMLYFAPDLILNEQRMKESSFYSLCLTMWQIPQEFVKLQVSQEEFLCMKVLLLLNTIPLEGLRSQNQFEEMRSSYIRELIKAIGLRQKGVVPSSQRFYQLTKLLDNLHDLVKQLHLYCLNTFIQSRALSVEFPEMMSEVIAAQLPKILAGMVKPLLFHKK
Assay: DRUGMATRIX: Progesterone radioligand binding (ligand: [3H] R-5020)
Type: tissue-based, Uterus
Conditions: Not Active = under 50% inhibition at 10 µM

Compound	IC50
CCN1CCN(C(=O)N[C@@H](C(=O)N[C@@H]2C(=O)N3[C@@H]2SC(C)(C)[C@@H]3C(=O)O)c2ccccc2)C(=O)C1=O [PIPERACILLIN]	Not Active
C=CCO [ALLYL ALCOHOL]	Not Active
O=C(O)CCc1nc(-c2ccccc2)c(-c2ccccc2)o1 [OXAPROZIN]	Not Active
c1ccc2sc(SSc3nc4ccccc4s3)nc2c1 [BENZOTHIAZYL DISULFIDE]	Not Active
O=C1CN(/N=C/c2ccc([N+](=O)[O-])o2)C(=O)N1 [NITROFURANTOIN]	Not Active

Tested on: not listed separately
Assay: DRUGMATRIX: Potassium Channel [KATP] radioligand binding (ligand: [3H] Glyburide)
Type: cell membranes, Membrane
Conditions: hit-t15; Not Active = under 50% inhibition at 10 µM

Compound	IC50	Ki
CCN1CCN(C(=O)N[C@@H](C(=O)N[C@@H]2C(=O)N3[C@@H]2SC(C)(C)[C@@H]3C(=O)O)c2ccccc2)C(=O)C1=O [PIPERACILLIN]	Not Active	Not Active
C=CCO [ALLYL ALCOHOL]	Not Active	Not Active
O=C(O)CCc1nc(-c2ccccc2)c(-c2ccccc2)o1 [OXAPROZIN]	Not Active	Not Active
c1ccc2sc(SSc3nc4ccccc4s3)nc2c1 [BENZOTHIAZYL DISULFIDE]	Not Active	Not Active
O=C1CN(/N=C/c2ccc([N+](=O)[O-])o2)C(=O)N1 [NITROFURANTOIN]	Not Active	Not Active

Biological target: T3, Interstitial collagenase (Homo sapiens, UniProt P03956);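 note: MMP-1 enzyme inhibition assay using a peptide substrate; in other assays of this panel Not Active means under 50% inhibition at 10 µM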
T3 sequence (P03956 whole entry): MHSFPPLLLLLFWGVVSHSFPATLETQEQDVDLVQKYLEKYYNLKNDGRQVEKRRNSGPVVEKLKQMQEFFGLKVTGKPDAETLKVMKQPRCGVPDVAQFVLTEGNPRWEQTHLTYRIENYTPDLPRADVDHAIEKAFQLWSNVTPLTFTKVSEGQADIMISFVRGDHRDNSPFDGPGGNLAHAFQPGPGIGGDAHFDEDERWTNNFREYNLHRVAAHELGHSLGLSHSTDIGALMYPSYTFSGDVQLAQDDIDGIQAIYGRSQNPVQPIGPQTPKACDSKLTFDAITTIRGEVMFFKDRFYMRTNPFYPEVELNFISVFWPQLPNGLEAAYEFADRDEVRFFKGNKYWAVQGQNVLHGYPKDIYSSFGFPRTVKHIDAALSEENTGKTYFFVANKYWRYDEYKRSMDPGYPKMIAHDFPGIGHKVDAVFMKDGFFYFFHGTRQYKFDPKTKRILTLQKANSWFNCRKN
Assay: biochemical
Type: tissue-based, Rheumatoid synovial fibroblasts
Conditions: not given

Compound	IC50
CCN1CCN(C(=O)N[C@@H](C(=O)N[C@@H]2C(=O)N3[C@@H]2SC(C)(C)[C@@H]3C(=O)O)c2ccccc2)C(=O)C1=O [PIPERACILLIN]	Not Active
C=CCO [ALLYL ALCOHOL]	Not Active
O=C(O)CCc1nc(-c2ccccc2)c(-c2ccccc2)o1 [OXAPROZIN]	Not Active
c1ccc2sc(SSc3nc4ccccc4s3)nc2c1 [BENZOTHIAZYL DISULFIDE]	Not Active
O=C1CN(/N=C/c2ccc([N+](=O)[O-])o2)C(=O)N1 [NITROFURANTOIN]	Not Active

Biological target: Cytochrome P450 2C19 (Homo sapiens, UniProt P33261); note: in other assays of this panel Not Active means under 50% inhibition at 10 µM
Assay: not given
Conditions: bti-tn-5b1-4

Chain of Cytochrome P450 2C19 (P33261 whole entry): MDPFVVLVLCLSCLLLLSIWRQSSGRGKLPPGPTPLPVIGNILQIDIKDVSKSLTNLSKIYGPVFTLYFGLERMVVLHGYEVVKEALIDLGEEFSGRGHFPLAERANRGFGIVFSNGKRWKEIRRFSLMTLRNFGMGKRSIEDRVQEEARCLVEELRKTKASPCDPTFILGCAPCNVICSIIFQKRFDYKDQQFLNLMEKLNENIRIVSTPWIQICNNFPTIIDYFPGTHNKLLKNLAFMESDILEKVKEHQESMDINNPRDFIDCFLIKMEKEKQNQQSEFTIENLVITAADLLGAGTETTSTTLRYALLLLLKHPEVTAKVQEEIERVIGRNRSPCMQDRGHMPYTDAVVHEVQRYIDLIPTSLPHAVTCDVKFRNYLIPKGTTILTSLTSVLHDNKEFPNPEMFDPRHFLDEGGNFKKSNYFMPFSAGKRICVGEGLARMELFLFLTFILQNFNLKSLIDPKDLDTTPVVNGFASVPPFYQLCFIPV

Compound	IC50	Ki
CCN1CCN(C(=O)N[C@@H](C(=O)N[C@@H]2C(=O)N3[C@@H]2SC(C)(C)[C@@H]3C(=O)O)c2ccccc2)C(=O)C1=O [PIPERACILLIN]	Not Active	Not Active
C=CCO [ALLYL ALCOHOL]	Not Active	Not Active
O=C(O)CCc1nc(-c2ccccc2)c(-c2ccccc2)o1 [OXAPROZIN]	Not Active	Not Active
c1ccc2sc(SSc3nc4ccccc4s3)nc2c1 [BENZOTHIAZYL DISULFIDE]	Not Active	Not Active
O=C1CN(/N=C/c2ccc([N+](=O)[O-])o2)C(=O)N1 [NITROFURANTOIN]	Not Active	Not Active
